Experimental data as given in patent publication US20130202545A1, “Stablised Polyphenol Derivatives, Process for Their Manufacture, and Uses Thereof” (BERKEM S.A., priority 2010, published 2013).

System: explants of human skin
Assay: Anti-lipoperoxidant activity: MDA level in UV-irradiated human skin explants
Assay type: cell-based
From the text: Oxygenated free radicals are produced in large quantities on the skin as a result of UV irradiation. These free radical species cause various forms of degradation to cellular components, and in particular, to membrane lipids. The latter are transformed into various hydroperoxide derivatives, such as for example malonyldialdehyde (MDA), and 4-hydrononenal (4-HNE). The determination of the amount of MDA in skin tissues is thus a good indicator of the production of oxygenated free radicals and peroxidation of membrane lipids. A comparison of the levels of MDA between treated and non-treated subjects therefore indicates whether the product applied has anti-lipoperoxidant activity. The model used for the experiments is one of human skin explants which are maintained in survival mode at 37° C., a humid atmosphere and 5% CO2. The skin explants are divided into three positive control batch treated with vitamin E (2 mg per explant) The products to be tested are dissolved at a concentration of 2% Vaseline oil. This solution is applied topically to the skin explants at a rate of one 30 micro-litre application per explant per day for 5 days. […] Levels of MDA (expressed in pmoles of MDA/ml of medium) in the explants are measured for both the treated and untreated batches. […] Antiradical activity was determined using the same method described in example 17. […]

Vitamin E
% Reduction in MDA (Example 21, etherified (silyl ether) OPC, same method as the earlier MDA example): 11% | % Reduction in MDA (products 2% in Vaseline oil, 30 micro-litre per explant per day for 5 days (vitamin E 2 mg per explant), UV A and UV B on day 5, treated vs untreated explants): 11%
